Test results from article PMC9377102, “Toxicity and toxicokinetics of the ethanol extract of Zuojin formula” (BMC Complementary Medicine and Therapies, 2022).
Like-named read-outs stand apart in the source and are kept apart here.

Experiments:
[1] = Toxicokinetics test in the satellite groups (UPLC-MS/MS of rat plasma); format: in vivo; settings: for AUC(0-t) / Cmax / Tmax / half-life: SD, rat, plasma, po; for half-life: read-out: T1/2 mean (converted)
Method: SD rats (5 ~ 6 weeks, 3/group/sex) were randomly allocated to three treatment groups and given the same dosage as those in the repeated toxicity experiment for 28 days. […] Carbamazepine was chosen as the internal standard (IS). The blood samples were centrifuged to obtain plasma. Then, 300 μL of acetonitrile containing 40 ng of IS was added to 100 μL of plasma. After vortexing for 1 min, the mixture was centrifuged at 17,000 rpm for 15 min at 4 °C. The supernatant of each sample was injected into a UPLC–MS/MS system for determination. The injection volume was 1 μL. UPLC–MS analysis was performed on a Thermo Fisher Scientific Ultimate 3000 UPLC system (San Jose, USA) and an API 4000 QTRAP mass spectrometer (Foster City, USA) equipped with an ESI source. The mobile phase consisted of 2 solvents: (A) water containing 0.1% formic acid and (B) 100% acetonitrile. For MS, multiple reaction monitoring (MRM) in positive ion mode was used as the scanning mode for the main components and IS in the plasma samples. The dwell time (DT), collision energy (CE), quadrupole 1 pre-rod bias (Q1) and quadrupole 3 pre-rod bias (Q3) are listed in Table 3.

[2] = test system: CYP3A4, CYP1A2 and CYP2D6; settings: cited from earlier work
[3] = female, female rats, Day 1, highest dose (berberine 72.08, epiberberine 7.42, coptisine 7.42, palmatine 18.26, jatrorrhizine 2.80, columbamine 5.93 mg/kg)
[4] = female, female rats, Day 1, middle dose (berberine 24.03, epiberberine 2.47, coptisine 2.47, palmatine 6.09, jatrorrhizine 0.93, columbamine 1.98 mg/kg)
[5] = female, female rats, Day 28, highest dose (berberine 72.08, epiberberine 7.42, coptisine 7.42, palmatine 18.26, jatrorrhizine 2.80, columbamine 5.93 mg/kg)
[6] = female, female rats, Day 28, lowest dose (berberine 8.01, epiberberine 0.82, coptisine 1.38, palmatine 2.03, jatrorrhizine 0.31, columbamine 0.66 mg/kg)
[7] = female, female rats, Day 28, middle dose (berberine 24.03, epiberberine 2.47, coptisine 2.47, palmatine 6.09, jatrorrhizine 0.93, columbamine 1.98 mg/kg)
[8] = male, male rats, Day 1, lowest dose (berberine 8.01, epiberberine 0.82, coptisine 1.38, palmatine 2.03, jatrorrhizine 0.31, columbamine 0.66 mg/kg)
[9] = male, male rats, Day 1, middle dose (berberine 24.03, epiberberine 2.47, coptisine 2.47, palmatine 6.09, jatrorrhizine 0.93, columbamine 1.98 mg/kg)
[10] = male, male rats, Day 28, highest dose (berberine 72.08, epiberberine 7.42, coptisine 7.42, palmatine 18.26, jatrorrhizine 2.80, columbamine 5.93 mg/kg)
[11] = male, male rats, Day 28, lowest dose (berberine 8.01, epiberberine 0.82, coptisine 1.38, palmatine 2.03, jatrorrhizine 0.31, columbamine 0.66 mg/kg)
[12] = male, male rats, Day 28, middle dose (berberine 24.03, epiberberine 2.47, coptisine 2.47, palmatine 6.09, jatrorrhizine 0.93, columbamine 1.98 mg/kg)

COc1cc2c(cc1O)CC[n+]1cc3c(OC)c(OC)ccc3cc1-2 [jatrorrhizine]
AUC(0-t) ([1]; female, 0.4 g/kg, female rats, Day 1, low dose TAZF 0.4 g/kg by gavage, read-out: AUC0-t): 25.6 ± 30 ng·h/mL | Cmax ([1]; female, 0.4 g/kg, female rats, Day 1, low dose TAZF 0.4 g/kg by gavage, read-out: Cmax): 11 ± 7.79 ng/mL | AUC(0-t) ([1]; female, 0.4 g/kg, female rats, Day 28, low dose TAZF 0.4 g/kg by gavage, read-out: AUC0-t): 23.9 ± 27.7 ng·h/mL | Cmax ([1]; female, 0.4 g/kg, female rats, Day 28, low dose TAZF 0.4 g/kg by gavage, read-out: Cmax): 11.2 ± 15 ng/mL | AUC(0-t) ([1]; female, 3.7 g/kg, female rats, Day 1, high dose TAZF 3.7 g/kg by gavage, read-out: AUC0-t): 22.1 ± 4.83 ng·h/mL | Cmax ([1]; female, 3.7 g/kg, female rats, Day 1, high dose TAZF 3.7 g/kg by gavage, read-out: Cmax): 14.8 ± 10.7 ng/mL | AUC(0-t) ([1]; female, 3.7 g/kg, female rats, Day 28, high dose TAZF 3.7 g/kg by gavage, read-out: AUC0-t): 11.4 ± 1.79 ng·h/mL | Cmax ([1]; female, 3.7 g/kg, female rats, Day 28, high dose TAZF 3.7 g/kg by gavage, read-out: Cmax): 2.08 ± 0.41 ng/mL | Tmax [1, 3]: 0.5 h | AUC(0-t) ([1]; female, female rats, Day 1, highest dose (berberine 72.08, epiberberine 7.42, coptisine 7.42, palmatine 18.26, jatrorrhizine 2.80, columbamine 5.93 mg/kg), read-out: AUC0-t mean): 22.1 ng·h/mL | Cmax ([1]; female, female rats, Day 1, highest dose (berberine 72.08, epiberberine 7.42, coptisine 7.42, palmatine 18.26, jatrorrhizine 2.80, columbamine 5.93 mg/kg), read-out: Cmax mean): 14.8 ng/mL | half-life [1, 3]: 3.96 h | AUC(0-t) ([1]; female, female rats, Day 1, lowest dose (berberine 8.01, epiberberine 0.82, coptisine 1.38, palmatine 2.03, jatrorrhizine 0.31, columbamine 0.66 mg/kg), read-out: AUC0-t mean): 25.6 ng·h/mL | Cmax ([1]; female, female rats, Day 1, lowest dose (berberine 8.01, epiberberine 0.82, coptisine 1.38, palmatine 2.03, jatrorrhizine 0.31, columbamine 0.66 mg/kg), read-out: Cmax mean): 11 ng/mL | half-life ([1]; female, female rats, Day 1, lowest dose (berberine 8.01, epiberberine 0.82, coptisine 1.38, palmatine 2.03, jatrorrhizine 0.31, columbamine 0.66 mg/kg)): 2.64 h | Tmax [1, 4]: 0.83 h | AUC(0-t) ([1]; female, female rats, Day 1, middle dose (berberine 24.03, epiberberine 2.47, coptisine 2.47, palmatine 6.09, jatrorrhizine 0.93, columbamine 1.98 mg/kg), read-out: AUC0-t mean): 19.9 ng·h/mL | Cmax ([1]; female, female rats, Day 1, middle dose (berberine 24.03, epiberberine 2.47, coptisine 2.47, palmatine 6.09, jatrorrhizine 0.93, columbamine 1.98 mg/kg), read-out: Cmax mean): 14.6 ng/mL | half-life [1, 4]: 3.57 h | Tmax [1, 5]: 1.33 h | AUC(0-t) ([1]; female, female rats, Day 28, highest dose (berberine 72.08, epiberberine 7.42, coptisine 7.42, palmatine 18.26, jatrorrhizine 2.80, columbamine 5.93 mg/kg), read-out: AUC0-t mean): 11.4 ng·h/mL | Cmax ([1]; female, female rats, Day 28, highest dose (berberine 72.08, epiberberine 7.42, coptisine 7.42, palmatine 18.26, jatrorrhizine 2.80, columbamine 5.93 mg/kg), read-out: Cmax mean): 2.08 ng/mL | half-life [1, 5]: 4.98 h | Tmax [1, 6]: 4.17 h | AUC(0-t) ([1]; female, female rats, Day 28, lowest dose (berberine 8.01, epiberberine 0.82, coptisine 1.38, palmatine 2.03, jatrorrhizine 0.31, columbamine 0.66 mg/kg), read-out: AUC0-t mean): 23.9 ng·h/mL | Cmax ([1]; female, female rats, Day 28, lowest dose (berberine 8.01, epiberberine 0.82, coptisine 1.38, palmatine 2.03, jatrorrhizine 0.31, columbamine 0.66 mg/kg), read-out: Cmax mean): 11.2 ng/mL | half-life [1, 6]: 3.39 h | Tmax [1, 7]: 1 h | AUC(0-t) ([1]; female, female rats, Day 28, middle dose (berberine 24.03, epiberberine 2.47, coptisine 2.47, palmatine 6.09, jatrorrhizine 0.93, columbamine 1.98 mg/kg), read-out: AUC0-t mean): 3.87 ng·h/mL | Cmax ([1]; female, female rats, Day 28, middle dose (berberine 24.03, epiberberine 2.47, coptisine 2.47, palmatine 6.09, jatrorrhizine 0.93, columbamine 1.98 mg/kg), read-out: Cmax mean): 1.29 ng/mL | half-life [1, 7]: 5.33 h | T1/2 mean ([1]; male rats, Day 1, highest dose (berberine 72.08, epiberberine 7.42, coptisine 7.42, palmatine 18.26, jatrorrhizine 2.80, columbamine 5.93 mg/kg)): 9.68 h | AUC(0-t) ([1]; male, 0.4 g/kg, male rats, Day 1, low dose TAZF 0.4 g/kg by gavage, read-out: AUC0-t): 52 ± 20.4 ng·h/mL | Cmax ([1]; male, 0.4 g/kg, male rats, Day 1, low dose TAZF 0.4 g/kg by gavage, read-out: Cmax): 11.8 ± 10.8 ng/mL | AUC(0-t) ([1]; male, 0.4 g/kg, male rats, Day 28, low dose TAZF 0.4 g/kg by gavage, read-out: AUC0-t): 8.62 ± 3.21 ng·h/mL | Cmax ([1]; male, 0.4 g/kg, male rats, Day 28, low dose TAZF 0.4 g/kg by gavage, read-out: Cmax): 16.4 ± 16 ng/mL | AUC(0-t) ([1]; male, 3.7 g/kg, male rats, Day 1, high dose TAZF 3.7 g/kg by gavage, read-out: AUC0-t): 101 ± 35.3 ng·h/mL | Cmax ([1]; male, 3.7 g/kg, male rats, Day 1, high dose TAZF 3.7 g/kg by gavage, read-out: Cmax): 17.7 ± 11 ng/mL | AUC(0-t) ([1]; male, 3.7 g/kg, male rats, Day 28, high dose TAZF 3.7 g/kg by gavage, read-out: AUC0-t): 25.6 ± 6.74 ng·h/mL | Cmax ([1]; male, 3.7 g/kg, male rats, Day 28, high dose TAZF 3.7 g/kg by gavage, read-out: Cmax): 7.97 ± 7.64 ng/mL | Tmax ([1]; male, male rats, Day 1, highest dose (berberine 72.08, epiberberine 7.42, coptisine 7.42, palmatine 18.26, jatrorrhizine 2.80, columbamine 5.93 mg/kg)): 4 h | AUC(0-t) ([1]; male, male rats, Day 1, highest dose (berberine 72.08, epiberberine 7.42, coptisine 7.42, palmatine 18.26, jatrorrhizine 2.80, columbamine 5.93 mg/kg), read-out: AUC0-t mean): 101 ng·h/mL | Cmax ([1]; male, male rats, Day 1, highest dose (berberine 72.08, epiberberine 7.42, coptisine 7.42, palmatine 18.26, jatrorrhizine 2.80, columbamine 5.93 mg/kg), read-out: Cmax mean): 17.7 ng/mL | Tmax [1, 8]: 10 h | AUC(0-t) ([1]; male, male rats, Day 1, lowest dose (berberine 8.01, epiberberine 0.82, coptisine 1.38, palmatine 2.03, jatrorrhizine 0.31, columbamine 0.66 mg/kg), read-out: AUC0-t mean): 52 ng·h/mL | Cmax ([1]; male, male rats, Day 1, lowest dose (berberine 8.01, epiberberine 0.82, coptisine 1.38, palmatine 2.03, jatrorrhizine 0.31, columbamine 0.66 mg/kg), read-out: Cmax mean): 11.8 ng/mL | half-life [1, 8]: 52.9 h | Tmax [1, 9]: 1.83 h | AUC(0-t) ([1]; male, male rats, Day 1, middle dose (berberine 24.03, epiberberine 2.47, coptisine 2.47, palmatine 6.09, jatrorrhizine 0.93, columbamine 1.98 mg/kg), read-out: AUC0-t mean): 74.5 ng·h/mL | Cmax ([1]; male, male rats, Day 1, middle dose (berberine 24.03, epiberberine 2.47, coptisine 2.47, palmatine 6.09, jatrorrhizine 0.93, columbamine 1.98 mg/kg), read-out: Cmax mean): 15.4 ng/mL | half-life [1, 9]: 68 h | Tmax [1, 10]: 1.17 h | AUC(0-t) ([1]; male, male rats, Day 28, highest dose (berberine 72.08, epiberberine 7.42, coptisine 7.42, palmatine 18.26, jatrorrhizine 2.80, columbamine 5.93 mg/kg), read-out: AUC0-t mean): 25.6 ng·h/mL | Cmax ([1]; male, male rats, Day 28, highest dose (berberine 72.08, epiberberine 7.42, coptisine 7.42, palmatine 18.26, jatrorrhizine 2.80, columbamine 5.93 mg/kg), read-out: Cmax mean): 7.97 ng/mL | half-life [1, 10]: 4.48 h | Tmax [1, 11]: 0.83 h | AUC(0-t) ([1]; male, male rats, Day 28, lowest dose (berberine 8.01, epiberberine 0.82, coptisine 1.38, palmatine 2.03, jatrorrhizine 0.31, columbamine 0.66 mg/kg), read-out: AUC0-t mean): 8.62 ng·h/mL | Cmax ([1]; male, male rats, Day 28, lowest dose (berberine 8.01, epiberberine 0.82, coptisine 1.38, palmatine 2.03, jatrorrhizine 0.31, columbamine 0.66 mg/kg), read-out: Cmax mean): 16.4 ng/mL | half-life [1, 11]: 11.1 h | Tmax [1, 12]: 12 h | AUC(0-t) ([1]; male, male rats, Day 28, middle dose (berberine 24.03, epiberberine 2.47, coptisine 2.47, palmatine 6.09, jatrorrhizine 0.93, columbamine 1.98 mg/kg), read-out: AUC0-t mean): 33.3 ng·h/mL | Cmax ([1]; male, male rats, Day 28, middle dose (berberine 24.03, epiberberine 2.47, coptisine 2.47, palmatine 6.09, jatrorrhizine 0.93, columbamine 1.98 mg/kg), read-out: Cmax mean): 7.78 ng/mL | half-life [1, 12]: 2.72 h | Systemic exposure after 28 days of administration vs single administration ([1]; rats, oral TAZF): much lower | Metabolism by CYP3A4, CYP1A2 and CYP2D6 [2]: metabolized
